Laboratory results reported in patent US10780094B2, “Use of carbonic anhydrase inhibitors for treatment of neurological and psychiatric disorders” (New York University, priority 2016, dated 2020).

What was measured:
[1] = test system: EC and SH-SY5Y cultures; test: Immunofluorescence deconvolution microscopy of CytC and MitoTracker (mitochondrial membrane potential); format: cell-based, human; settings: for loss of mitochondrial membrane potential (red dye internalization): Example 3, cells treated with Aβ
Experimental: Both EC and SH-SY5Y cells were plated on to glass chamber slides (Thermo Fisher Scientific), pre-coated with either collagen-I or poly-d-lysine (for ECs and SH-SY5Y cells respectively). After seeding, cells were allowed to attach for 1 day before treatment with the different peptides for 1-3 days, as above. Cells were washed with ice-cold PBS, fixed with 4% paraformaldehyde (10 min at room temperature) and blocked for 1 h with 20 mg/ml BSA in PBST (PBS containing 0.3% Triton X-100). Slides were further incubated with mouse anti-CytC monoclonal antibody (BD Biosciences; 1:200 dilution in PBST containing 5 mg/ml BSA; 2 h at room temperature) followed by Alexa Fluor® 488-conjugated anti-(mouse IgG) antibody (Invitrogen; 1:200 in PBST with 5 mg/ml BSA; 1 h at room temperature). Fluorescence signals were visualized in a Nikon Eclipse E 800 deconvolution microscope using NIS Elements software (Nikon Instruments) for image acquisition and processing, and AutoQuant (Media Cybernetics) for 3D deconvolution. The effect of methazolamide in preventing the Aβ-induced release of CytC from the mitochondria into the cytoplasm was evaluated in EC and SH-SY5Y cultures. After peptide incubation in the presence and absence of methazolamide (Sigma), release of CytC was visualized by immunofluorescence microscopy and WB analysis, and corroborated by confocal assessment of CytC in conjunction with the mitochondrial marker MitoTracker®.

[2] = test system: mitochondrial CA; settings: reference (16); cited from earlier work
[3] = test system: caspase 9 in SH-SY5Y neuronal cells; test: Caspase-Glo 9 activity after Aβ challenge; format: cell-based, human; settings: for caspase 9 activation: Example 2/3, FIG. 16C, 22
Experimental: Caspase 9 and caspase 3/7 activation was measured by luminescent assays (Caspase-Glo 9 and caspase-Glo 3/7, Promega, Madison, Wis.), in cells treated with the Aβ peptides in DMEM without FBS. Briefly, 10,000 cells/well were plated in 96 wells plates and incubated for 24 hours with the freshly solubilized Aβ peptides. Caspase-Glo reagent was added to the cell cultures resulting in cell lysis, followed by caspase cleavage of the substrate and generation of a luminescent signal produced by the luciferase reaction. After 40 minutes incubation, the amount of caspase activity was evaluated in a plate-reading luminometer (Synergy HT Multi-Mode Microplate Reader, Biotek, Winooski, Vt.) as described in (Fossati et al., 2012b). To inhibit non-specific background activity, the proteasome inhibitor MG-132 was added to the Caspase-Glo reagent before the experiment as indicated by the manufacturer. In all cases results are expressed as fold-change compared to untreated control cells.
Cells were plated at a confluence of 10.000 cells per well in 96-wells microplate luminescence microtiter (ThermoFisher, Waltham, Mass., US). The day after, cells were treated with the peptides and/or drugs for the experimental times. After that, caspase-Glo 9 assay was performed, following the protocol provided from the manufacturer. Luminescence was measured using a FlexStation 3 Multi-Mode Microplate Reader (Molecular devices, Sunnyvalem Calif., US).

[4] = test system: D3 cells; test: ATP measurement (CellTiter-Glo); format: cell-based, human; settings: co-treatment with the peptide; 3 hours
Experimental: (§1) Steady state levels of ATP were estimated using the Cell Titter-Glo, according to manufacturer's instructions. Briefly, 5×10^3 cells per well of both D3 and SHSY cells were plated on 96-wells plates. The day after, cells were treated with either 10 μM Q22 or 50 μM Ab42 peptides, respectively. Peptides were added alone or in combination with increasing concentrations of MTZ (100 and 300 μM) or AZT (30 and 300 μM). Controls were treated with either DMSO or 5 μM oligomycin. After 3 hours of treatment, the plates containing the cells were equilibrated to room temperature for 30 minutes prior to addition of the luciferin/luciferase/cell lysis mixture. Absolute luminescence from quadruplicate experiments was recorded using a SpectraMax plate reader (Molecular Devices, Sunnyvalem Calif., US).

[5] = test system: SH-SY5Y cells; test: ATP measurement (CellTiter-Glo); format: cell-based, human; settings: drug in combination with the peptide; 3 hours
Experimental: as §1

[6] = test system: SH-SY5Y cells; test: Cell Death ELISAplus, Aβ-induced apoptosis (fragmented nucleosomes); format: cell-based, human; settings: for apoptosis in response to Aβ: Example 2/3, Aβ42 challenge, FIG. 17A, 21
Experimental: The extent of apoptosis caused by Aβ in the presence or absence of MTZ was assessed by quantitation of nucleosome formation using Cell Death ELISA^plus (Roche Applied Science, Indianapolis, Ind.). Briefly, after incubation with the peptides, plates were centrifuged in a Beckman J-6B centrifuge (10 min; 1,000 rpm), cells lysed, and DNA-histone complexes (nucleosomes) quantitated by Cell Death ELISA, as previously described (Fossati et al., 2010).
(§2) 20.000 cells per well were plated on 24-wells plates. The day after, cells were treated with peptides and/or drugs, following the experimental conditions.
(§3) 20,000 cells per well were plated on 24-wells plates. The day after, cells were treated with peptides and/or drugs, following the experimental conditions.

[7] = test system: D3 cerebral microvascular endothelial cells; test: TMRM assay of mitochondrial membrane potential (ΔΨ); format: cell-based, human; settings: for ΔΨ after pre-aggregated Aβ: any of the used concentrations, 45 minutes
Experimental: (§4) Briefly, cells were plated on 25 mm optical borosilicate poly-L-lysine-coated sterile glass covers (ThermoFisher, Waltham, Mass., US) at a 70% confluence. The day after, cells were washed twice with HBSS and charged with 600 nM TMRM on HBSS. Cells were then incubated for 20 min in the incubator, at 37° C. and washed again with HBSS. After that, the medium was replaced by HBSS containing 150 nM of tetramethylrhodamine methyl ester (TMRM), in order to maintain the equilibrium distribution of the fluorophore. Cells were then mounted on Sykes-Moores chambers (BellCo, Vineland, N.J., US) and treated with the different drugs and/or peptides. An image was taken at minute 0 and at minute 45, after adding the drugs and/or peptides. In this experiment, the peptide was pre-aggregated as above before adding it to the cells.

[8] = test system: SH-SY5Y neuronal cells; test: as above; format: cell-based, human; settings: for ΔΨ after pre-aggregated Aβ: any of the used concentrations, 45 minutes
Experimental: as §4

[9] = test system: hCMEC/D3 cells (D3); test: Cell Death ELISAplus, Aβ-induced apoptosis; format: cell-based, human; settings: Example 2/3; Aβ40-Q22 challenge; FIG. 17B, 21
Experimental: as §2, §3

[10] = ATZ 10 μM added to the peptides
[11] = Aβ-Iowa(isoD), 1 day, methazolamide starting at 100 μM

## CC(=O)Nc1nnc(S(N)(=O)=O)s1 [ATZ, acetazolamide]
[1]
  loss of mitochondrial membrane potential (red dye internalization): prevented
[2]
  activity on mitochondrial CA: high activity
[3]
  caspase 9 activation: protective effect
[4]
  Q22-induced increase in steady state ATP levels: unaffected
[5]
  ATP levels under Aβ challenge: remained unchanged
[6]
  apoptosis in response to Aβ: prevented
[7]; [10]
  loss of ΔΨ: prevent loss of ΔΨ
[7]
  ΔΨ after pre-aggregated Aβ: rescue ΔΨ to values similar to those observed under control conditions
[8]; [10]
  loss of ΔΨ: prevent loss of ΔΨ
[8]
  ΔΨ after pre-aggregated Aβ: rescue ΔΨ to values similar to those observed under control conditions
[9]
  apoptosis in response to Aβ: prevented

## CC(=O)/N=c1/sc(S(N)(=O)=O)nn1C [MTZ, methazolamide]
[1]; [11]
  mitochondrial membrane potential (MitoTracker localization): restored the mitochondrial membrane potential
  subcellular localization of CytC: preserved the subcellular localization of CytC
[1]
  loss of mitochondrial membrane potential (red dye internalization): prevented
[2]
  activity on mitochondrial CA: high activity
[3]; 100 or 300 μM MTZ, 10 μM Aβ42, 24 hours
  caspase 9 over-activation: completely inhibited
[3]
  caspase 9 activation: protective effect
[3]; MTZ alone in absence of Aβ
  caspase 9 activity, drug alone: did not have any effect
[4]
  Q22-induced increase in steady state ATP levels: unaffected
[5]
  ATP levels under Aβ challenge: remained unchanged
[6]; 100 μM MTZ, Aβ42 10 μM or Aβ40-Q22 50 μM, 1 day
  DNA fragmentation after Aβ challenge: significantly effective at reducing DNA fragmentation
[6]; 300 μM MTZ, Aβ42 10 μM or Aβ40-Q22 50 μM, 1 day
  Aβ-mediated increase in fragmented nucleosomes: completely prevented
[6]
  apoptosis in response to Aβ: prevented
[7]
  ΔΨ after pre-aggregated Aβ: rescue ΔΨ to values similar to those observed under control conditions
[8]
  ΔΨ after pre-aggregated Aβ: rescue ΔΨ to values similar to those observed under control conditions
[9]
  apoptosis in response to Aβ: prevented
